Results on 1 molecule are retold here after patent US20090061515A1, “Methods of inhibiting or suppressing cellular proliferation” (priority 2007, published 2009).

What all share (format): cell-based
Data set [1] has as its system Normal Human Dermal Fibroblast (NHDF) cells. The experiment in a line: Cell count and visual morphology of NHDF after exposure and after re-plating (Example 3). The following applies: for cell count: NHDF seeded at 45,000 cells/well, 48 hours of exposure; for growth after re-plating without compound: then 96 hours in fresh media without compound. As to the method:
(§1) The 5,6-dihydroxy-hexan-2-one (1.2 grams) was dissolved in 12 ml of phosphate buffered saline and was filter sterilized through a 0.22 micrometer syringe filter prior to use. The 5,6-dihydroxy-hexan-2-one was further diluted to 10^−1, 10^−2, 10^−3, 10^−4, 10^−5, and 10^−6 using serial dilutions for the evaluation.
NHDF were seeded at 45,000 cells/well in 24 well plate(s). Cells were grown for 72 hours, 48 hours of which was done in the presence of the test chemicals. 24 hours after seeding, 5,6-dihydroxy-hexan-2-one was added to the cell culture plates (2 ml/well). Assay plates were pulled for analysis at 24 and 48 hours after addition of the chemical compound. Samples were analyzed on the above-described assay as provided in the instructions for use of the assay.
Cell counts were taken after the cells had been plated for 72 hours and exposed to 5,6-dihydroxy-hexan-2-one for 48 hours.
After 48 hours of exposure to 5,6-dihydroxy-hexan-2-one, a cell count was taken on the 10^−1 concentration group and the 10^−6 concentration group. The 10^−1 cell count was 45,000 cells/well and the 10^−6 cell count was 275,000 cells/well. The count for the 10^−1 concentration group yielded the same number of cells that were previously seeded, while the 10^−6 concentration group had continued to grow rapidly without problems. Cells from these two different groups were then plated out at the same density as before, but without exposure to 5,6-dihydroxy-hexan-2-one and in fresh media for 96 hours. Visual representations of these two groups can be seen in FIG. 5 (10^−1, exposed to 5,6-dihydroxy-hexan-2-one for 48 hours, continued the culture for an additional 96 hours without 5,6-dihydroxy-hexan-2-one) and FIG. 6 (10^−6, exposed to 5,6-dihydroxy-hexan-2-one for 48 hours, continued the culture for an additional 96 hours without 5,6-dihydroxy-hexan-2-one).

Data set [2] deals with human Glioblastoma/Astrocytoma U87 cells. The experiment in a line: CyQuant cell proliferation after 48 hour exposure, U87 (Example 6). Conditions: for cell proliferation: 48 hour exposure. On the procedure:
Evaluation of the effects of 5,6-dihydroxy-hexan-2-one on human umbilical vein endothelial cells (HUVEC) and Glioblastoma/Astrocytoma cells U87 cellular proliferation and migration during 120 hours following 48 hour exposure to 5,6-dihydroxy-hexan-2-one at concentration of 10 mg/ml, 1 mg/ml, 100 micrograms/ml. Controls were cells not exposed to the agent.
In order to further explore the effects of this compound, experiments to evaluate the dose-effect response on the antiproliferative effect and on cell migration were conducted on two cell lines, human umbilical vein endothelial cells (HUVEC) and Glioblastoma/Astrocytoma cells (U87), over 120 hours after 48 hours of exposure to the compound.
A cell proliferation assay available under the trade designation CyQuant from Invitrogen Corporation (Carlsbad, Calif.) determines the density of cells in culture by using a green fluorescent dye which fluoresces when bound to cellular nucleic acids.

Data set [3] deals with Normal Human Dermal Fibroblast (NHDF) cells. The experiment in a line: CytoTox 96 LDH release cytotoxicity assay (Example 3). As to the method: The assay used was a non-radioactive cytotoxicity assay available under the trade designation CytoTox 96 from Promega Corporation (Madison, Wis.), which was designed to determine the cytotoxicity of a substance by quantitatively measuring the presence of lactate dehydrogenase (LDH) in cell culture supernatant. The enzymatic assay utilizes the LDH released in the supernatant in the conversion of a tetrazolium salt substrate into a red formazan product. This resulting product is measured using a standard 96 well plate reader where the absorbance recorded at 490 nanometers is directly proportional to the number of lysed cells. The Normal Human Dermal Fibroblasts were available from Clonetics Corporation (San Diego, Calif.).
as §1
NHDF were seeded at 45,000 cells/well in 24 well plate(s). Cells were grown for 72 hours, 48 hours of which was done in the presence of the test chemicals. 24 hours after seeding, 5,6-dihydroxy-hexan-2-one was added to the cell culture plates (2 ml/well). […] Samples were analyzed on the above-described assay as provided in the instructions for use of the assay.
On the technique in general: LDH in the medium is a marker of cell lysis.

Data set [4] deals with coronary artery smooth muscle cells (CASMC). The data set is described as follows: Cell proliferation and viability assays (CyQuant, CellTiter-Glo, CellTiter 96), CASMC (Example 5). The following applies: 48 hours. The text has this:
Multiple assays were used to test a variety of cellular properties expressed after exposure of different cells types to 5,6-dihydroxy-hexan-2-one. A cell proliferation assay available under the trade designation CyQuant from Invitrogen Corporation (Carlsbad, Calif.) determines the density of cells in culture by using a green fluorescent dye which fluoresces when bound to cellular nucleic acids. The amount of nucleic acid present is proportional to the amount of living cells in culture. […]
The amount of ATP present is proportional to the measured amount of a luminescent signal and therefore the amount of viable cells. […] The absorbance read is proportional to the amount of metabolic activity present in the cells.
Normal human dermal fibroblast (NHDF) cells and coronary artery smooth muscle cells (CASMC) in culture were exposed to 5,6-dihydroxy-hexan-2-one at concentrations of 10 microgram/ml, 1 mg/ml, and 10 mg/ml, for 48 hours, after which the cell culture wells were analyzed for cell proliferation and viability. […] FIG. 17 is a graphical representation of fibroblast cell numbers measured after 48 hours exposure to different concentrations of 5,6-dihydroxy-hexan-2-one. FIG. 18 is a graphical representation of smooth muscle cell numbers measured after 48 hours exposure to different concentrations of 5,6-dihydroxy-hexan-2-one. […]
A general note: Cellular ATP, detected with luciferase, serves as a proxy for viable cell number.

`CC(=O)CCC(O)CO` (stereo not shown) [5,6-dihydroxy-hexan-2-one]: the cell count was 45,000 cells/well in data set [1] (10^-1 concentration) and 275,000 cells/well in data set [1] (10^-6 concentration). Further, the “growth after re-plating without compound” value in data set [1] (NHDF, 10^-1, exposed 48 hours) was “impaired ability for cell proliferation”; in data set [1] (NHDF, 10^-6, exposed 48 hours), “continued to grow without problems”. Besides, the visual morphological study entry in data set [1] (NHDF, 10^-1 concentration, 24 and 48 hours) is listed as “signs of cell distress”. Besides, the “visual physical cellular response” value in data set [1] (NHDF, 10^-1 concentration, 48 hours) is listed as “Fewer human dermal fibroblasts cells were observed”. Further, the cell proliferation result in data set [2] (U87, 10 mg/ml) is listed as “antiproliferative effects”; in data set [2] (U87, lowest concentration evaluated (100 micrograms/ml)), “no antiproliferative effects”; in data set [4] (10 mg/ml), “inhibition of cell proliferation”; in data set [4] (other concentrations (10 microgram/ml, 1 mg/ml)) it was “did not show this effect”. For the same molecule, the “time after withdrawal at which inhibitory effect was still observed” value in data set [2] (U87, 10 mg/ml, after 48 hour exposure) is ≥ 120 h. Also, the “cytotoxicity (LDH release), in words” value is “no significant cytotoxicity” in data set [3] (10^-1 concentration) and “no increase in cytotoxicity” in data set [3] (various concentrations, 48 hours).
